Results on 2 molecules are retold here after patent publication US12168673B2 (Mitopower, Inc., priority 2022, dated 2024).

Molecules are shown by their SMILES.

Series [1] can be described thus: Human hepatocyte clearance. The class given is in vitro ADME. To be noted: human hepatocytes, 1 μM; for half-life at 1 μM: 0-90 min, read-out: T½; for hepatocyte CLint at 1 μM: read-out: Intrinsic Clearance (CL Int). As to the method: (§1) A hepatocyte vial was taken out from the liquid nitrogen tank and was thawed in a water bath maintained at 37° C. The thawed cell suspension was transferred into a torsion tube containing 50 mL of thawing media (Xenotech). The thawing media containing hepatocytes was centrifuged at 1000 rpm for 5 min, the supernatant was discarded and the pellet was resuspended in 2 ml of Xenotech OptiIncubate Media. The cells were counted by using a haemocytometer after mixing an aliquot of cell suspension with equal volume of trypan blue. The cell suspension was diluted to a working density of 2 million cells with DMEM media without FBS/incubation media.
(§2) The assay was performed in duplicates (n=2). 150 μL of 2 million cell working stock of hepatocyte cell suspension was added to a 24 well plate and incubated in a 37° C. incubator, with speed of 500 RPM for 10 min. 150 μL of 2 μM working stock of test compound was incubated separately. The reaction at 0, 15, 30, 60 and 90 min was stopped by precipitating 20 μL of incubation mixture with 200 μL of acetonitrile containing internal standard. […] The supernatant was separated and diluted 1:1 with water before injecting in LC-MS/MS analysis.

Series [2] concerns human hepatocytes. Kind of series: Human hepatocyte clearance. Type of series: in vitro ADME. As to the method: as §1, §2
In series [3] the test system is human hepatocytes. Kind of series: Human hepatocyte stability.
Description: 10 mM stock solution of test compound was prepared in DMSO and diluted to a concentration of 1 mM with DMSO. Working concentration of 2 μM was prepared by further dilution with PBS. Preincubation mixture of 150 μL of hepatocyte cell suspension (1,000,000 cells/mL, INVITROGRO HT medium buffer), was added to vials for preincubation for 10 min @37° C.
150 μL of 2 μM working stock of the test compound was added to the cell suspension and incubated at @37 C at 500 rpm. The reaction was stopped at 0, 15, 30, 60 and 90 min by precipitating 50 μL of the incubation mixture with 150 μL of acetonitrile. Samples were vortexed for 5 min at 1200 rpm and centrifuged at 4000 rpm for 10 min. 150 μL of the supernatant was diluted with 150 μL of water and injected in MS system (SCIEX, API 4500 Q Trap) for analysis.
A further series has as its system HepG2 cells. Briefly: Cellular NAD+ levels in HepG2 cells, NAD cycling assay. The class given is cell-based. Particulars: for NAD+ level increase at the lowest concentration: HepG2, 10 μM. As to the method:
HepG2 cells were seeded at densities of 1 million cells per well in a 6 well plate. The next day, cells were treated with test compounds for 4 hours and were harvested using the below protocol. Each well was washed once with 2 mL ice cold PBS which was removed and 400 μL 2M HClO4 (perchloric acid) was added to each well, which was scraped and the residue transferred to 1.5 mL tubes and spun down. 100 μL of the supernatant was transferred to a clean 1.5 mL vial and 150 μL KOH/MOPS 2M/0.6M (neutralization buffer) was added to each vial under vortex which was spun down. The pH was measured following the NAD cycling protocol.
NAD standards were prepared from 0 to 0.5 μM in water as per Table 7.
The cycling reaction was prepared as follows. 10 μl samples were added followed by water to bring the volume up to 25 μl. 25 μl of each standard was used in duplicates for the reaction. Then 50 μl of mix A (cycling mix) was added to the sample and standards. Mix A contained the following:
Reaction was initiated using 25 μL enzyme mix (15 U/ml of alcohol dehydrogenase+15 U/mL of malate dehydrogenase). The samples were incubated at 37° C. for 30 minutes in a water bath and the reaction terminated by heating in a water bath for 5 minutes at 80° C. Then 25 μl of the sample was used in the detection step. 100 μl mix B, which contains following components were added to the sample.
Reaction was initiated using a start reagent (prepared by mixing 10 μl of malate dehydrogenase and 10 μl of glutamate oxaloacetic transaminase in 1 ml of water. The reading were measured at 340 nm in a envision plate reader. The results are shown in FIGS. 4A-4D.

Series [4] concerns primary human hepatocytes. Briefly: NAD+ in primary human hepatocytes (Example 12). Type of series: cell-based. Particulars: 10 μM, four hours of incubation. Here is the method: (§3) Cryopreserved primary human hepatocytes, sourced from Lonza were cultured and were seeded into 6 well dishes with 0.5 million cells per well. […] The cells were later spun down and extracted. The supernatant was tested via LCMS/MS for NAD^+.

Series [5] concerns primary human hepatocytes. Kind of series: NAD+ in primary human hepatocytes at 250 μM (Example 10). The class given is cell-based. To be noted: four hours of incubation. As to the method:
as §3

Regarding `COC(=O)[C@@H](C)N[P@](=O)(OC[C@H]1OC(OC(=O)c2cccnc2)[C@H](O)[C@@H]1O)Oc1ccccc1` (single isomer, unassigned) [Compound 103], the half-life at 1 μM in series [1] came out at 22.2 min. Besides, the hepatocyte CLint at 1 μM in series [1] is 31.3 µL/min/1e6 cells. The “Remarks (clearance class)” value in the series on human hepatocytes [2] is on record as “High”. The “% Parent Remaining” value in the series on human hepatocytes [3] (0 mins) came to 100%; with human hepatocytes [3] (15 mins) it was 63%; in the series on human hepatocytes [3] (30 mins), 40%; with human hepatocytes [3] (60 mins), 15%; with human hepatocytes [3] (90 mins), 5%. The “NAD+ level increase at the lowest concentration” value with HepG2 cells is listed as “statistically significant increase”. Also, the “NAD+ level increase compared to untreated cells” value in series [4] and in series [5] was “statistically significant NAD^+ level increases” in each case.

`COC(=O)[C@@H](C)N[P@@](=O)(OC[C@H]1OC(OC(=O)c2cccnc2)[C@H](O)[C@@H]1O)Oc1ccccc1` (single isomer, unassigned) [Compound 104]: in series [1], the half-life at 1 μM came out at 48.1 min. Further, the hepatocyte CLint at 1 μM in series [1] is 14.4 µL/min/1e6 cells. The “Remarks (clearance class)” value in the series on human hepatocytes [2] is listed as “medium clearance”. Besides, the “clearance in human hepatocytes (in words)” value in the series with human hepatocytes [3] is reported as “medium clearance”. Also, the “% Parent Remaining” value came out at 100% in the series with human hepatocytes [3] (0 mins); 78% with human hepatocytes [3] (15 mins); 65% with human hepatocytes [3] (30 mins); 45% in the series with human hepatocytes [3] (60 mins); 24% in the series on human hepatocytes [3] (90 mins). Besides, the “NAD+ level increase at the lowest concentration” value with HepG2 cells is reported as “statistically significant increase”. The “NAD+ level increase compared to nicotinic acid” value in the series on HepG2 cells (HepG2, all concentrations (10-250 μM)) is given as “statistically significant increase”. In addition, the “NAD+ level increase compared to untreated cells” value in series [4] and in series [5] was “statistically significant NAD^+ level increases” throughout.
